Where two headings read alike, the source gives them in different places.
How the values were obtained:
P450 1B1 [1] = target: T1, P450 1B1 (Homo sapiens, UniProt Q16678); assay: Quenching of P450 1B1; type: binding; conditions: extrapolated % quenching; 1.0 μM P450 1B1
T1 sequence (Q16678 1-543): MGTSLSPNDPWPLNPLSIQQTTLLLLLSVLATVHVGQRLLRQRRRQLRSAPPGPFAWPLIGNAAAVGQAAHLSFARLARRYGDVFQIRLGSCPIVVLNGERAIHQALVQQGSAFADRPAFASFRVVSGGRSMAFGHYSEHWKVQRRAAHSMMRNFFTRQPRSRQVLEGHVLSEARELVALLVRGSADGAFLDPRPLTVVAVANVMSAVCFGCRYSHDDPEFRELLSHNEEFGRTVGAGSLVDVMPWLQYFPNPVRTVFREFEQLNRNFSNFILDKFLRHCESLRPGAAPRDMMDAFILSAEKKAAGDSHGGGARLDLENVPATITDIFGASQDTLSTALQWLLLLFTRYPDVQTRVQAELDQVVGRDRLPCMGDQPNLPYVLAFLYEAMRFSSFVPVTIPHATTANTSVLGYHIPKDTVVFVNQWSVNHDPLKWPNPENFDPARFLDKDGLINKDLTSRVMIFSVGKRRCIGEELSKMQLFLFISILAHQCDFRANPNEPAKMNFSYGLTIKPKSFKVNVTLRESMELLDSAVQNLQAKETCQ

P450 1A1 [2] = target: T2, P450 1A1 (Homo sapiens, UniProt P04798); assay: Quenching of P450 fluorescence with inhibitors, P450 1A1; type: binding
T2 sequence (P04798 1-512): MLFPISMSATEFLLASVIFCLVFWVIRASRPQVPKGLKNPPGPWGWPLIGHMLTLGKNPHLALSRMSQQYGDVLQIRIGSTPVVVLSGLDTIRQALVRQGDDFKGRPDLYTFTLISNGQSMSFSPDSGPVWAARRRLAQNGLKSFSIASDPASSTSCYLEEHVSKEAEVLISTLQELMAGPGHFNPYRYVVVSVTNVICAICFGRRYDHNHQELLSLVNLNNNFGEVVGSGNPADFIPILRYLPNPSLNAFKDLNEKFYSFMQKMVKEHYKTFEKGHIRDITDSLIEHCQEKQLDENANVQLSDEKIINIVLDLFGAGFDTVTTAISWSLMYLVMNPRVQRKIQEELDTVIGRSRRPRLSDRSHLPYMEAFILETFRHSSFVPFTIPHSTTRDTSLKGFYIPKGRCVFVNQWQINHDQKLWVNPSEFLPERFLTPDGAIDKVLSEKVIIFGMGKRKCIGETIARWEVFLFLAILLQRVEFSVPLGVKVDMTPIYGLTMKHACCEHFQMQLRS

P450 1A2 [3] = target: T3, P450 1A2 (Homo sapiens, UniProt P05177); assay: Quenching of P450 fluorescence with inhibitors, P450 1A2; type: binding
T3 sequence (P05177 1-516): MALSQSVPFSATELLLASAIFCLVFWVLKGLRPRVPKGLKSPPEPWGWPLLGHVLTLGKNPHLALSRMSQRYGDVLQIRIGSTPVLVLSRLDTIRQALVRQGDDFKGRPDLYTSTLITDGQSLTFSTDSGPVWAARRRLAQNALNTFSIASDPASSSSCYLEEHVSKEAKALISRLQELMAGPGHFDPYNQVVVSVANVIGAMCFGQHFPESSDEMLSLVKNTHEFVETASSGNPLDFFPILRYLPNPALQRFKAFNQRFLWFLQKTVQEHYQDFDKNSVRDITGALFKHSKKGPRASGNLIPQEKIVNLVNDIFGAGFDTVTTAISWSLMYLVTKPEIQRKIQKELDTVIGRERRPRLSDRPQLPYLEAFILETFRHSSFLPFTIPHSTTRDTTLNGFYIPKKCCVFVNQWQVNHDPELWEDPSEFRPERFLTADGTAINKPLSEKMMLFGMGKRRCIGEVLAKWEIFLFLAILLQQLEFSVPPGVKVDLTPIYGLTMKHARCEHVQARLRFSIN

P450 1B1 [4] = target: T1, P450 1B1
P450 1B1 [5] = target: T1, P450 1B1; assay: Spectral binding titrations with purified P450 1B1; conditions: for ΔAmax (ΔA~416-A~383) / wavelengths (peak/trough): 1 μM P450 1B1; for ΔAmax (ΔA~416-A~383): means ± S.E.; for wavelengths (peak/trough): pH 7.4
P450 1B1 [6] = target: T1, P450 1B1; assay: Quenching of PAH; conditions: for interaction with P450 1B1 (quenching of inhibitor fluorescence): inhibitors at 10 nM
P450 1B1 [7] = target: T1, P450 1B1; assay: Inhibition of P450 1B1-dependent 7-ethoxyresorufin O-deethylation; conditions: for IC50: means and SE; for course of EROD Km values during the incubation: direct inhibitors
P450 1A1 [8] = target: T2, P450 1A1; assay: Inhibition of P450 1A1-dependent EROD activity; type: biochemical; conditions: for fold increase in EROD Km of P450 1A1: 1PP 66 nM, 3PPh 333 nM
P450 1A2 [9] = target: T3, P450 1A2; assay: Inhibition of P450 1A2-dependent EROD activity; type: biochemical; conditions: 37 °C
[10] = inhibition of EROD activity IC50, 15 s of incubation time (direct and direct/restore inhibitors)

Compound	PAH binding to P450 1B1 Bmax (P450 1B1 [1]) [%]	ΔAmax / Ks (P450 1B1 [4])	Kd (P450 1B1 [5]) [nM]	ΔAmax (ΔA~416-A~383) (P450 1B1 [5])	wavelengths (peak/trough) (P450 1B1 [5])	IC50 (P450 1B1 [7]; [10]) [nM]	also measured
C=Cc1ccc2ccc3cccc4ccc1c2c34 [1VP, 1-vinylpyrene]	65 ± 2	0.021	4300 ± 500	0.092 ± 0.006	416/383	88 ± 10	Kd (P450 1A1 [2]): ~10000 nM; Kd (P450 1A2 [3]): ~10000 nM; Kd (P450 1B1 [6]): 1.9 to 18 nM
C#Cc1ccc2ccccc2c1 [2EN, 2-ethynylnaphthalene]			15000 ± 8000	0.049 ± 0.038	415/383	190000 ± 16000	ΔAmax / Ks (P450 1B1 [5]): 0.003; course of EROD Km values during the incubation (P450 1B1 [7]): increased throughout the incubation period
C#Cc1cc2ccc3cccc4ccc(c1)c2c34 [2EP, 2-ethynylpyrene]	69 ± 3	0.021	3400 ± 500	0.071 ± 0.005	416/387	110 ± 20	Kd (P450 1B1 [6]): 1.9 to 18 nM; course of EROD Km values during the incubation (P450 1B1 [7]): increased throughout the incubation period
C#Cc1ccc2c(ccc3ccccc32)c1 [2EPh, 2-ethynylphenanthrene]	62 ± 4	0.020	4200 ± 1300	0.080 ± 0.013	414/383	130 ± 21	Kd (P450 1B1 [6]): 1.9 to 18 nM; course of EROD Km values during the incubation (P450 1B1 [7]): increased throughout the incubation period
CC#Cc1ccc2c(ccc3ccccc32)c1 [2PPh, 2-(1-propynyl)phenanthrene]	77 ± 5	0.030	2200 ± 100	0.067 ± 0.001	415/383	100 ± 12	Kd (P450 1B1 [6]): 1.9 to 18 nM
C#Cc1ccc2ccc3ccccc3c2c1 [3EPh, 3-ethynylphenanthrene]	108 ± 22	0.024	3000 ± 400	0.071 ± 0.004	414/383	110 ± 16	type of spectral change with P450 1B1 (P450 1B1 [5]; difference spectra): reverse type I
Cc1ccc2cc3c(ccc4ccccc43)c3c2c1CC3 [3MC, 3-methylcholanthrene]	105 ± 6					14 ± 2	interaction with P450 1B1 (quenching of inhibitor fluorescence) (P450 1B1 [6]): not found
CC#Cc1ccc2ccc3ccccc3c2c1 [3PPh, 3-(1-propynyl)phenanthrene]	73 ± 5	0.019	3100 ± 400	0.060 ± 0.004	415/383	40 ± 3	fold increase in EROD Km of P450 1A1 (P450 1A1 [8]; at 360 s): 25 fold; fold increase in EROD Km of P450 1A1 (P450 1A1 [8]; initial incubation time): ~ 8 fold; mechanism of inhibition of P450 1A1 EROD activity (P450 1A1 [8]; 37 °C, 30 min): mechanism-based inhibitors; mechanism of inhibition of P450 1A2 EROD activity (P450 1A2 [9]): mechanism-based manner; EROD kcat of P450 1B1 relative to controls (P450 1B1 [7]; 1PP 66 nM, 3PPh 33 nM, after 6 min of incubation): 56%; fold increase in EROD Km of P450 1B1 (P450 1B1 [7]; 1PP 66 nM, 3PPh 33 nM, at 15 s): 2.3 fold; EROD Km of P450 1B1 relative to control value (P450 1B1 [7]; 3PPh 33 nM, 6 min of incubation): one-third; EROD kcat of P450 1B1 relative to control, first decrease (P450 1B1 [7]; initial stage of incubation): ~ one-fifth
C#Cc1cc2cccc3ccc4cccc1c4c32 [4EP, 4-ethynylpyrene]	67 ± 3	0.013	4000 ± 900	0.052 ± 0.006	416/383	250 ± 20	Kd (P450 1B1 [6]): 1.9 to 18 nM
C#Cc1ccc(-c2ccccc2)cc1 [4Ebi, 4-ethynylbiphenyl]			7600 ± 1200	0.023 ± 0.002	416/383	3300 ± 500	ΔAmax / Ks (P450 1B1 [5]): 0.003; course of EROD Km values during the incubation (P450 1B1 [7]): increased throughout the incubation period
CC#Cc1ccc(-c2ccccc2)cc1 [4Pbi, 4-(1-propynyl)biphenyl]			12000 ± 5000	0.074 ± 0.022	415/386		ΔAmax / Ks (P450 1B1 [5]): 0.005; IC50 (P450 1B1 [7]; inhibition of EROD activity IC50, 6 min of incubation time (mechanism-based inhibitor)): 17000 ± 2000 nM
Cc1cc2ccccc2c2ccc3ccccc3c12 [5MeCh, 5-methylchrysene]	83 ± 5					8 ± 1	interaction with P450 1B1 (quenching of inhibitor fluorescence) (P450 1B1 [6]): not found
C#Cc1cc2ccccc2c2ccccc12 [9EPh, 9-ethynylphenanthrene]	52 ± 3	0.020	3600 ± 1000	0.071 ± 0.010	415/383	140 ± 18	course of EROD Km values during the incubation (P450 1B1 [7]): increased throughout the incubation period
CC#Cc1cc2ccccc2c2ccccc12 [9PPh, 9-(1-propynyl)phenanthrene]	61 ± 3	0.015	3200 ± 300	0.049 ± 0.002	416/383	110 ± 21	course of EROD Km values during the incubation (P450 1B1 [7]): increased throughout the incubation period
c1ccc2cc3c(ccc4ccccc43)cc2c1 [B[a]A, benz[a]anthracene]	46 ± 1						IC50 (P450 1B1 [7]; read-out: inhibition of EROD activity IC50, 15 s of incubation time (direct and direct/restore inhibitors)): 9 ± 1 nM
c1ccc2c(c1)-c1cccc3c1c-2cc1ccccc13 [B[b]FA, benzo[b]fluoranthene]	91 ± 2					5 ± 1	Kd (P450 1A1 [2]): ~10000 nM; Kd (P450 1A2 [3]): ~10000 nM; interaction with P450 1B1 (quenching of inhibitor fluorescence) (P450 1B1 [6]): not found
c1ccc2c(c1)c1cccc3ccc4cccc2c4c31 [B[e]P, benzo[e]pyrene]	100 ± 6					17 ± 2	interaction with P450 1B1 (quenching of inhibitor fluorescence) (P450 1B1 [6]): not found
c1ccc2c3c(ccc2c1)-c1cccc2cccc-3c12 [B[j]FA, benzo[j]fluoranthene]						44 ± 6	
c1ccc2c(c1)ccc1nc3ccc4ccccc4c3cc12 [DB[a,j]Ac, dibenz[a,j]acridine]						15 ± 2	Kd (P450 1B1 [6]): 14 nM
Cc1c2ccccc2c(C)c2c1ccc1ccccc12 [DMBA, 7,12-dimethylbenz[a]anthracene]	62 ± 1					300 ± 33	
c1ccc2c(c1)-c1cccc3cccc-2c13 [FA, fluoranthene]	91 ± 2					15 ± 1	Kd (P450 1A1 [2]): ~10000 nM; Kd (P450 1A2 [3]): ~10000 nM; interaction with P450 1B1 (quenching of inhibitor fluorescence) (P450 1B1 [6]): not found
c1ccc2c(c1)ccc1c3ccccc3ccc21 [chrysene]	84 ± 6					92 ± 11	interaction with P450 1B1 (quenching of inhibitor fluorescence) (P450 1B1 [6]): not found
